The values that follow come from US20260109690A1, “HDAC6 INHIBITORS AND METHOD OF THEIR USE” (Baerenkraft Therapeutics, LLC., priority 2024, published 2026).

By IC50 is commonly meant the concentration that inhibits the measured activity by half.

The experiment has as its target T1, HDAC6 (Homo sapiens, UniProt Q9UBN7).
T1 sequence (Q9UBN7 1-1215): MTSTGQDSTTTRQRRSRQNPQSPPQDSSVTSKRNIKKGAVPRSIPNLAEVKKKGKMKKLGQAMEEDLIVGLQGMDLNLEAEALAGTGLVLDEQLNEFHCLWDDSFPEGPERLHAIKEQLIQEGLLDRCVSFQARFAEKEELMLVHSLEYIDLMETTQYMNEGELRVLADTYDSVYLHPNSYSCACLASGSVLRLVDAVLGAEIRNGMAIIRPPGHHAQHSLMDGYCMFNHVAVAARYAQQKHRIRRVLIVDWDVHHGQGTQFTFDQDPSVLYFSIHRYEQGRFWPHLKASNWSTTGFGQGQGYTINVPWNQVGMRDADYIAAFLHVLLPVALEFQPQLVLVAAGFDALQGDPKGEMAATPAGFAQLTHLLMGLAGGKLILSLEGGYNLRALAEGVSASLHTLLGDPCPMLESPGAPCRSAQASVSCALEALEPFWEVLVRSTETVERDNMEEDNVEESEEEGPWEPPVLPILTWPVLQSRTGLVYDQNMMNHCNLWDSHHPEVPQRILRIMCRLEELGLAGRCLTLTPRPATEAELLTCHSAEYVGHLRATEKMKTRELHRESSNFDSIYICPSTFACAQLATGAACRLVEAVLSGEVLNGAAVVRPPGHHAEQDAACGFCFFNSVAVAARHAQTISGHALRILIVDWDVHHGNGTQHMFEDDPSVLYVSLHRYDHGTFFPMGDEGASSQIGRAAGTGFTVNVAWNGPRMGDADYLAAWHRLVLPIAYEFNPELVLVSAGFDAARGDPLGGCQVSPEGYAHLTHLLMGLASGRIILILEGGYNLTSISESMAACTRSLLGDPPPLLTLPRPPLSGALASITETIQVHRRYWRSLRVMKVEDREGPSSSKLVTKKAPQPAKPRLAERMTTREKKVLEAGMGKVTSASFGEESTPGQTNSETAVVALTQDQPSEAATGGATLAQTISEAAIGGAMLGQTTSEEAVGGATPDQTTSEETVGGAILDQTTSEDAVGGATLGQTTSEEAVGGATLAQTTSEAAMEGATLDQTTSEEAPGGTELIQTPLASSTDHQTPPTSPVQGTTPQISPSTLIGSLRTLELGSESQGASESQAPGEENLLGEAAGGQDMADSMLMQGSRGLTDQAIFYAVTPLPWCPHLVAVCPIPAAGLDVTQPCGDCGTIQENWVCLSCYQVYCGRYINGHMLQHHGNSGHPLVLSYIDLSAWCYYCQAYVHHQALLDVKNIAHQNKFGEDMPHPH
The experiment can be described thus: Biochemical HDAC6 inhibitory activity assay. To be noted: read-out: HDAC6 IC50.

SMILES strings stand for the structures. Counter-ions that a name gives are not always drawn. Like-named read-outs stand apart in the source and are kept apart here.

For `O=C(NO)c1ccc(-c2ccnc(Nc3ccc(C(=O)N4CCOCC4)c(F)c3)n2)cc1` [Compound I-1, 4-(2-((3-fluoro-4-(morpholine-4-carbonyl)phenyl)amino)pyrimidin-4-yl)-N-hydroxybenzamide], the IC50 was less than 1000 nM.
The same measure, in the same setting: to `N#CNC(=O)c1ccc(-c2ccnc(Nc3ccc(C(=O)N4CCOCC4)c(F)c3)n2)cc1` [Compound I-2, N-cyano-4-(2-((3-fluoro-4-(morpholine-4-carbonyl)phenyl)amino)pyrimidin-4-yl)benzamide] belongs greater than 100000 nM; to `CC1CCN(C(=O)c2ccc(Nc3nccc(-c4ccc(C(=O)NO)cc4)n3)cc2F)CC1` [Compound I-3, 4-(2-((3-fluoro-4-(4-methylpiperidine-1-carbonyl)phenyl)amino)pyrimidin-4-yl)-N-hydroxybenzamide], less than 1000 nM.
Same read-out and setting: to `CN1CCN(C(=O)c2ccc(Nc3nccc(-c4ccc(C(=O)NO)cc4)n3)cc2F)CC1` [Compound I-4, 4-(2-((3-fluoro-4-(4-methylpiperazine-1-carbonyl)phenyl)amino)pyrimidin-4-yl)-N-hydroxybenzamide] belongs less than 1000 nM; to `CC1CCN(Cc2ccc(Nc3nccc(-c4ccc(C(=O)NO)cc4)n3)cc2F)CC1` [Compound I-6, 4-(2-((3-fluoro-4-((4-methylpiperidin-1-yl)methyl)phenyl)amino)pyrimidin-4-yl)-N-hydroxybenzamide], less than 1000 nM.
On the same count and under the same terms, as for `CC(c1ccc(Nc2nccc(-c3ccc(C(=O)NO)cc3)n2)cc1F)N1CCN(C)CC1` (centres unmarked) [Compound I-10, 4-(2-((3-fluoro-4-(1-(4-methylpiperazin-1-yl)ethyl)phenyl)amino)pyrimidin-4-yl)-N-hydroxybenzamide], the figure is less than 1000 nM; as for `CC1CN(c2ccc(Nc3nccc(-c4ccc(C(=O)NO)cc4)n3)cc2F)CCO1` (centres unmarked) [Compound I-11, 4-(2-((3-fluoro-4-(2-methylmorpholino)phenyl)amino)pyrimidin-4-yl)-N-hydroxybenzamide], less than 1000 nM.
Consider `Cc1cc(-c2ccnc(Nc3ccc(N4CCOC(C)C4)c(F)c3)n2)ccc1C(=O)NO` (centres unmarked) [Compound I-12, 4-(2-((3-fluoro-4-(2-methylmorpholino)phenyl)amino)pyrimidin-4-yl)-N-hydroxy-2-methylbenzamide], for which the IC50 was in the range of 1000 to 10000 nM.
Take `CC1CN(C(C)c2ccc(Nc3nccc(-c4ccc(C(=O)NO)cc4)n3)cc2F)CCO1` (centres unmarked) [Compound I-13, 4-(2-((3-fluoro-4-(1-(2-methylmorpholino)ethyl)phenyl)amino)pyrimidin-4-yl)-N-hydroxybenzamide]: the IC50 is less than 1000 nM.
Still for that read-out and setting: to `CC1CN(CC(=O)Nc2nccc(-c3ccc(C(=O)NO)cc3)n2)CCO1` (centres unmarked) [Compound I-14, N-hydroxy-4-(2-(2-(2-methylmorpholino)acetamido)pyrimidin-4-yl)benzamide] belongs less than 1000 nM.
In the case of `C[C@H]1CN(Cc2ccc(Nc3nccc(-c4ccc(C(=O)NO)cc4)n3)cc2F)CCO1` [Compound I-15, (S)-4-(2-((3-fluoro-4-((2-methylmorpholino)methyl)phenyl)amino)pyrimidin-4-yl)-N-hydroxybenzamide], the half-maximal inhibitory concentration (IC50) was less than 1000 nM. Moreover, for the setting “10-dose IC50 mode, in singlet, 3-fold serial dilution starting at 1 μM”, the IC50 was determined as 16 nM.
Consider `O=C(NO)c1ccc(-c2nc(Nc3ccc(C(=O)N4CCOCC4)c(F)c3)ncc2Cl)cc1` [Compound I-17, 4-(5-chloro-2-((3-fluoro-4-(morpholine-4-carbonyl)phenyl)amino)pyrimidin-4-yl)-N-hydroxybenzamide], for which the IC50 was less than 1000 nM.
The same measure, in the same setting: as for `CCNNC(=O)c1ccc(-c2ccnc(Nc3ccc(C(=O)N4CCOCC4)c(F)c3)n2)cc1` [Compound I-18, N′-ethyl-4-(2-((3-fluoro-4-(morpholine-4-carbonyl)phenyl)amino)pyrimidin-4-yl)benzohydrazide], the figure is less than 1000 nM; as for `CCNNC(=O)c1ccc(-c2ccnc(Nc3ccc(C(=O)N4CCOCC4)cc3)n2)cc1` [Compound I-19, N′-ethyl-4-(2-((4-(morpholine-4-carbonyl)phenyl)amino)pyrimidin-4-yl)benzohydrazide], less than 1000 nM; as for `CCNNC(=O)c1ccc(-c2ccnc(NC(=O)N3CCOCC3)n2)cc1` [Compound I-20, N-(4-(4-(2-ethylhydrazine-1-carbonyl)phenyl)pyrimidin-2-yl)morpholine-4-carboxamide], 1000 to 10000 nM.
Same read-out and setting: as for `CCNNC(=O)c1ccc(-c2ccnc(N3CCOCC3)n2)cc1` [Compound I-21, N′-ethyl-4-(2-morpholinopyrimidin-4-yl)benzohydrazide], the figure is less than 1000 nM.
On the same count and under the same terms, to `CCNNC(=O)c1ccc(-c2nc(N3CCOCC3)ncc2Cl)cc1` [Compound I-22, 4-(5-chloro-2-morpholinopyrimidin-4-yl)-N′-ethylbenzohydrazide] belongs greater than 100000 nM; to `CCNNC(=O)c1ccc(-c2ccnc(N3CCC4(CC3)COC4)n2)cc1` [Compound I-23, 4-(2-(2-oxa-7-azaspiro[3.5]nonan-7-yl)pyrimidin-4-yl)-N′-ethylbenzohydrazide], less than 1000 nM; to `CCNNC(=O)c1ccc(-c2nc(N3CCC4(CC3)COC4)ncc2Cl)cc1` [Compound I-24, 4-(5-chloro-2-(2-oxa-7-azaspiro[3.5]nonan-7-yl)pyrimidin-4-yl)-N′-ethylbenzohydrazide], greater than 100000 nM.
With `C[C@H]1CN(Cc2ccc(Nc3nccc(-c4ccc(-c5nnc(C(F)F)o5)cc4)n3)cc2F)CCO1` [Compound I-30, (S)-4-(4-(5-(difluoromethyl)-1,3,4-oxadiazol-2-yl)phenyl)-N-(3-fluoro-4-((2-methylmorpholino)methyl)phenyl)pyrimidin-2-amine], the concentration for half-maximal inhibition (IC50) lay in the range of 1000 to 10000 nM.
The same measure, in the same setting: to `C[C@H]1CN(Cc2ccc(Nc3nccc(-c4ccc(-c5nnc(C(F)F)o5)cc4F)n3)cc2F)CCO1` [Compound I-31, (S)-4-(4-(5-(difluoromethyl)-1,3,4-oxadiazol-2-yl)-2-fluorophenyl)-N-(3-fluoro-4-((2-methylmorpholino)methyl)phenyl)pyrimidin-2-amine] belongs less than 1000 nM; to `C[C@@H]1CN(Cc2ccc(Nc3nccc(-c4ccc(-c5nnc(C(F)F)o5)cc4)n3)cc2F)CCO1` [Compound I-32, (R)-4-(4-(5-(difluoromethyl)-1,3,4-oxadiazol-2-yl)phenyl)-N-(3-fluoro-4-((2-methylmorpholino)methyl)phenyl)pyrimidin-2-amine TFA salt], 1000 to 10000 nM.
Same read-out and setting: to `C[C@@H]1CN(Cc2ccc(Nc3nccc(-c4ccc(-c5nnc(C(F)F)o5)cc4F)n3)cc2F)CCO1` [Compound I-33, (R)-4-(4-(5-(difluoromethyl)-1,3,4-oxadiazol-2-yl)-2-fluorophenyl)-N-(3-fluoro-4-((2-methylmorpholino)methyl)phenyl)pyrimidin-2-amine] belongs less than 1000 nM; to `C[C@H]1CN(Cc2ccc(Nc3nccc(-c4ccc(-c5nnc(C(F)F)o5)cn4)n3)cc2F)CCO1` [Compound I-34, (S)-4-(5-(5-(difluoromethyl)-1,3,4-oxadiazol-2-yl)pyridin-2-yl)-N-(3-fluoro-4-((2-methylmorpholino)methyl)phenyl)pyrimidin-2-amine], 1000 to 10000 nM.
Turning to `C[C@@H]1CN(Cc2ccc(Nc3nccc(-c4ccc(-c5nnc(C(F)F)o5)cn4)n3)cc2F)CCO1` [Compound I-35, (R)-4-(5-(5-(difluoromethyl)-1,3,4-oxadiazol-2-yl)pyridin-2-yl)-N-(3-fluoro-4-((2-methylmorpholino)methyl)phenyl)pyrimidin-2-amine], the IC50 was in the range of 10000 to 35000 nM.
